Results on 27 compounds are retold here after PubChem BioAssay (NCI).

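The compound was tested at five concentrations on cells cultured in 96-well plates, with a 48-hour exposure period. Definition used: TGI = concentration required for complete inhibition of growth.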 Where a SMILES comes first, the peptide text is derived from it. [ ]: non-standard residue; d: D form. The star is where a group is joined. Tyr(3-Br) = N[C@@H](Cc1ccc(O)c(Br)c1)C(=O)O; Boc = CC(C)(C)OC(=O)*

What all share (test): growth of human tumour cells (NCI), 48 h
The subject of assay [1] is MDA-MB-231 breast.
The test system of assay [2] is SNB-19 CNS.
In assay [3] the test system is HT29 colon.
Assay [4] relates to RXF 393 renal.
Assay [5] relates to SK-MEL-5 melanoma.
Assay [6] relates to MDA-MB-435.
For assay [7], the system named is UACC-62 melanoma.
The test system of assay [8] is MDA-N.
Assay [9] has as its system OVCAR-5 ovarian.
Assay [10] has as its system MCF7 breast.
Assay [11] concerns IGROV1 ovarian.

`CCN(CC)C(=S)SS(=O)(=O)c1ccc(Cl)cc1`: the TGI was > 100 µM in assay [1]; > 100 µM in [2]; 32.1 µM in assay [3]; 39.2 µM in [4]; 30.9 µM in assay [5]; 48.5 µM in assay [6]. In addition, the TGI in assay [7], in assay [8] and in [9] was > 100 µM in each case.

In the case of `COc1cc(NC(C)=O)ccc1C(=O)NN1C(=O)C(Cl)C1c1ccco1` (stereo not given), the TGI in assay [2], in assay [10], in [3], in assay [4], in [5] and in assay [6] was > 100 µM each time. Besides, the TGI in assay [7], in [8], in [11] and in [9] was > 100 µM each time.

Consider `Cc1ccc2c(sc(-c3ccc4c(c3)sc(-c3ccc5c(c3)sc(-c3ccc(N(C)C)cc3)[n+]5C)[n+]4C)[n+]2C)c1S(=O)(=O)O` (tested in a mixture with another compound), for which the TGI in assay [1], in assay [2], in assay [10], in assay [3], in [5] and in assay [6] was > 100 µM each time. Also, the TGI in [7], in assay [8], in [11] and in [9] was > 100 µM throughout.

On to `COC(=O)[C@H](Cc1ccc(O)c(Br)c1)NC(=O)[C@H](Cc1ccc(O)cc1)NC(=O)OC(C)(C)C` (Boc-Tyr-[Tyr(3-Br)]-OMe), for which the TGI in assay [2] was > 100 µM; in assay [10], > 100 µM; in assay [3], > 100 µM; in assay [6] it was 53.5 µM; in [8] it was > 100 µM; in assay [11] it was > 100 µM. Also, in [9], the TGI was > 100 µM.

Consider `CCOC(=O)c1nc2ccccc2nc1Nc1ccc(OC)c(OC)c1`, for which the TGI in [1], in assay [2], in assay [10], in assay [3], in assay [5] and in [6] was > 100 µM throughout. The TGI in [7], in assay [8], in assay [11] and in assay [9] was > 100 µM in each case.

As to `C/C=C1/CN2CCC3(O)c4ccccc4N4C=C(C(=O)OC)C1CC2C43O` (stereo not given), the TGI in assay [2], in [10], in assay [3], in assay [5], in assay [6] and in [7] was > 100 µM each time. Further, the TGI in [8], in assay [11] and in assay [9] was > 100 µM in each case.

Take `CCN(CC)CCNC(=O)c1ccc(I)cc1`: the TGI in assay [1], in assay [2], in [10], in [3], in assay [4] and in [5] was > 100 µM in each case. Also, the TGI in assay [6], in assay [8], in assay [11] and in [9] was > 100 µM in each case.

As for `O=C(NNC(c1ccccc1)C(F)(F)F)c1ccncc1` (stereo not given), the TGI in assay [1], in [2], in [10], in assay [3], in assay [5] and in [6] was > 100 µM each time. Besides, the TGI in [11] and in assay [9] was > 100 µM throughout.

`NC(=O)NC(=O)c1cccc(CNc2ccc(C(=O)N[C@@H](CCC(=O)O)C(=O)O)cc2)n1`: the TGI in [1], in [10], in [3], in [5], in assay [6] and in assay [7] was > 100 µM in each case. Besides, the TGI in assay [8], in assay [11] and in [9] was > 100 µM each time.

For the compound `c1ccc(P(CCP(c2ccccn2)c2ccccn2)c2ccccc2)cc1`, the TGI in [2] was > 100 µM; in assay [10], > 100 µM; in assay [3] it was > 100 µM; in [4], 98 µM; in assay [5], > 100 µM; in assay [6], > 100 µM. The TGI in assay [7], in assay [8] and in assay [9] was > 100 µM in each case.

On to `OC[C@]1(n2nc3ccccc3n2)OC[C@@H]1c1ccccc1`, for which the TGI in assay [1], in assay [2], in [10], in assay [3], in [5] and in assay [6] was > 100 µM in each case. In addition, the TGI in assay [7], in assay [8], in assay [11] and in assay [9] was > 100 µM throughout.

`C=C(C)C1CC/C(C)=C/CC[C@]2(C)O[C@H]2CC/C(COC(C)=O)=C\[C@@H]1O` (stereo not given in full): the TGI in [1], in assay [2], in assay [10], in [3], in assay [4] and in assay [5] was > 50 µM each time. Moreover, the TGI in assay [6], in assay [7], in [11] and in assay [9] was > 50 µM throughout.

Turning to `CCOc1ccc(NC(=O)/C(=N\NC(C)(C)C)C2C(=O)Nc3ccccc3S2=O)cc1` (stereo not given), the TGI in assay [2], in assay [10], in [3], in [4], in assay [5] and in assay [6] was > 100 µM throughout. Further, the TGI in assay [7], in assay [8], in assay [11] and in assay [9] was > 100 µM throughout.

With `O=C(C[n+]1ccccc1)N/N=C(\Cc1nc2ccc([N+](=O)[O-])cc2[nH]c1=O)C(=O)Nc1cc(Cl)c(Cl)cc1Cl`, the TGI in assay [1], in assay [2], in [10], in assay [3], in [4] and in assay [5] was > 100 µM in each case. The TGI in assay [6], in [7], in assay [11] and in assay [9] was > 100 µM throughout.

`O=C(CCCNc1nc(-c2ccccc2)cs1)c1cccs1`: the TGI in [1], in assay [2], in assay [10], in assay [3], in assay [5] and in [6] was > 100 µM throughout. For the same compound, the TGI in assay [7], in [8], in assay [11] and in [9] was > 100 µM throughout.

On to `Cn1c(-c2cccs2)cc(-c2cccs2)c1-c1ccco1`, for which the TGI was > 100 µM in assay [1]; > 100 µM in assay [2]; 5.41 µM in assay [10]; > 100 µM in assay [3]; > 82.7 µM in [4]; > 100 µM in assay [5]. For the same compound, the TGI in [7], in assay [8], in assay [11] and in assay [9] was > 100 µM throughout.

As to `CCOC(=O)c1c(C)cc(=O)n2c1[nH]c1ccccc12`, the TGI in assay [1], in assay [2], in assay [10], in assay [3], in assay [4] and in [5] was > 100 µM each time. Moreover, the TGI in assay [7], in [8], in [11] and in assay [9] was > 100 µM in each case.

Consider `COc1ccc2c(c1)/C(=C\c1c(C)nc3sc(C)cn13)C(=O)N2`, for which the TGI in [1] was 73.6 µM; in assay [2] it was > 100 µM; in assay [10], > 100 µM; in assay [3], 7.83 µM; in [5], 4.62 µM; in [6] it was 0.458 µM. In addition, the TGI in [7] is 97.9 µM; in [8], 0.46 µM; in [11], 20.5 µM; in assay [9], 74.4 µM.

In the case of `Cc1cc(S(=O)(=O)/N=C(\[N-]S(=O)(=O)c2ccc(Cl)cc2)[n+]2ccc(N(C)C)cc2)c(S)cc1Cl`, the TGI in assay [1], in assay [10], in [3], in assay [4], in [5] and in assay [6] was > 100 µM each time. Moreover, the TGI in assay [8], in [11] and in [9] was > 100 µM each time.

With `Cc1oc(N)c(S(=O)(=O)c2ccc(Cl)cc2)c1C`, the TGI in [2], in assay [10], in assay [3], in [4], in assay [5] and in assay [6] was > 100 µM in each case. Also, the TGI in assay [7], in assay [11] and in [9] was > 100 µM each time.

`COc1cc(C(=O)O[C@@H]2[C@@H](OC(=O)c3cc(OC)c(OC)c(OC)c3)[C@@H](OC)O[C@@H]3CO[C@@H](c4ccccc4)O[C@@H]23)cc(OC)c1OC`: the TGI in assay [1], in assay [2], in assay [10], in assay [3], in [5] and in assay [6] was > 100 µM each time. Besides, the TGI in [7], in assay [8], in assay [11] and in assay [9] was > 100 µM each time.

Consider `C/C=C\C(CC(=O)NCCC1CN(S(=O)(=O)C(F)(F)F)c2ccccc21)CC(=O)OC` (stereo not given), for which the TGI in assay [1] is > 100 µM; in assay [2], > 100 µM; in assay [10], > 100 µM; in assay [3], 51.3 µM; in assay [4] it was > 100 µM; in assay [5], 41.4 µM. Further, the TGI in assay [7], in assay [8], in assay [11] and in assay [9] was > 100 µM in each case.

As for `CN1CCCCC(C#N)(c2ccccc2)CC1` (stereo not given), the TGI in assay [2], in assay [10], in assay [3], in assay [4], in [5] and in assay [8] was > 100 µM each time. For the same compound, the TGI in [11] and in assay [9] was > 100 µM throughout.

Take `C/C(=N\Nc1nc2ccccc2n1C)c1cnccn1`: the TGI is 71.9 µM in assay [1]; > 100 µM in assay [2]; > 100 µM in assay [10]; > 42.5 µM in [3]; > 100 µM in [4]; 10 µM in assay [5]. Further, the TGI in [6], in [8] and in assay [9] was > 100 µM in each case.

Regarding `C=C(C)CC1(O)C(=O)C(OCC)=C1OCC` (stereo not given), the TGI in [1], in [2], in assay [10], in assay [3], in assay [5] and in assay [6] was > 100 µM throughout. Further, the TGI in [7], in [8], in assay [11] and in assay [9] was > 100 µM each time.

On to `O=C(Cc1csc(N=Nc2c(O)[nH]c3ccccc23)n1)Nc1ccccc1`, for which the TGI is > 100 µM in assay [1]; 85.4 µM in assay [2]; > 100 µM in assay [10]; 59 µM in [3]; > 100 µM in [4]; > 100 µM in assay [5]. Besides, the results for the TGI in [6], in [11] and in assay [9] were > 100 µM, 30.5 µM and > 100 µM, respectively.

Regarding `CC1(C)CC23CC(C)(C)c4cccc(c42)OCc2ccc4ccc5ccc(nc5c4n2)COc2cccc1c23`, the TGI was > 50 µM in assay [1]; > 5 µM in assay [2]; > 50 µM in assay [10]; > 50 µM in [3]; > 50 µM in assay [5]; > 50 µM in [6]. Moreover, the TGI in assay [7], in [8], in [11] and in assay [9] was > 50 µM in each case.
